Publication PMC3539763 (ACS medicinal chemistry letters, 2010)
Entries after “also recorded” stand apart in the source; their conditions may differ.

Assays:
[1] = biological target: rat mGlu5 (Rattus norvegicus, UniProt P31424); test: calcium fluorescence; assay type: cell-based; conditions: for less potent than 10e: potentiation EC50 relative to 10e
[2] = biological target: mGlu5 (Rattus norvegicus, UniProt P31424); test: radioligand binding with [3H]3-methoxy-PEPy; conditions: at highest concentration, 30 μM; partial and incomplete; data not shown
Chain of mGlu5 (P31424 21-1203): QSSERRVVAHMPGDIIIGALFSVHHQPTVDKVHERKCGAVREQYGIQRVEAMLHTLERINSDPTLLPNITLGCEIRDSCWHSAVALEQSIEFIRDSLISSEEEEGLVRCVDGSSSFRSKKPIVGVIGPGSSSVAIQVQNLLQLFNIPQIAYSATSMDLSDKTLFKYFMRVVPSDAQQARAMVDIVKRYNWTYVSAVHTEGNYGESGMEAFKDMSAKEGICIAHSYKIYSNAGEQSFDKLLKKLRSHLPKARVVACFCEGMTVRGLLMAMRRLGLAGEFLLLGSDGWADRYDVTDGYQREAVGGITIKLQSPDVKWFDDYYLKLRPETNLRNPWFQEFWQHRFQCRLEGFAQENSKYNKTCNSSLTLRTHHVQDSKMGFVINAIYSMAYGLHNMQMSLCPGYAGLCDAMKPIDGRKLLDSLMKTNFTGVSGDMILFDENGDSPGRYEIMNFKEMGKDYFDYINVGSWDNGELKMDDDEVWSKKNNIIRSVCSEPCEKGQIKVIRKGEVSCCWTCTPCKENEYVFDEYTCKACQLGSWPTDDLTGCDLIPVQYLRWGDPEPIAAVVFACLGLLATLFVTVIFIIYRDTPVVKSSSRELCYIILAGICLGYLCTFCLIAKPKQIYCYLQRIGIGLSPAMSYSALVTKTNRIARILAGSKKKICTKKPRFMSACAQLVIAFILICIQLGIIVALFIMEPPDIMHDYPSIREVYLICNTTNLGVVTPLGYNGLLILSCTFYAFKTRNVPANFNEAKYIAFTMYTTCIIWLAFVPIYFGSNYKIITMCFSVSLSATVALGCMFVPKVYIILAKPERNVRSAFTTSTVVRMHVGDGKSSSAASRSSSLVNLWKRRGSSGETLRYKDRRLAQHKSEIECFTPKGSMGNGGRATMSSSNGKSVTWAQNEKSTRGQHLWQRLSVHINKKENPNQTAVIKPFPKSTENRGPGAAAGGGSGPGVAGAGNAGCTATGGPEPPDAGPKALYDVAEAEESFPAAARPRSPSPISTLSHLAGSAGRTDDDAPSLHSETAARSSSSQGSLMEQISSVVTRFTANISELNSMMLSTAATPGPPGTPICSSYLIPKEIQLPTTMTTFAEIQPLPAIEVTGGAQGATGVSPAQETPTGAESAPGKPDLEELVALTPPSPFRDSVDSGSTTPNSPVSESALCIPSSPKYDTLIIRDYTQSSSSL

[3] = test system: open field locomotor activity; test: open field locomotor activity, compound dosed alone; assay type: in vivo, rat; conditions: dosed alone at 56.6 mg/kg
[4] = stability in rat liver microsomes; conditions: after 60 min
[5] = transcellular permeability; conditions: >20 × 10^-6 cm/sec is preferred for CNS targets
[6] = kinetic aqueous solubility screen; conditions: aqueous medium
[7] = stability in human liver microsomes; conditions: after 60 min

Chain of rat mGlu5 (P31424 21-1203): as above

COc1ccccc1N1CCN(C(=O)COCc2ccccc2)CC1 [10c]
less potent than 10e [1]: > 5 fold

N#Cc1ccccc1N1CCN(C(=O)COCc2ccccc2)CC1 [10e]
displacement of [3H]3-methoxy-PEPy radioligand [2]: ca. 50%
sedation / abnormal behavior in open field locomotor activity [3]: no sedation or abnormal behavior; also recorded: without causing sedation
concentration at which compound alone slightly activates mGlu5 ([1]; CRC in absence of glutamate): above 30 μM
mGlu5 agonism of compound alone ([1]; compound alone, no glutamate, up to 10 μM): no inherent mGlu5 agonism; also recorded: no effect
potency enhancement vs. lead 8 ([1]; potentiator of the glutamate EC20): > 3 fold
parent compound remaining [4]: less than 5%
transcellular permeability [5]: acceptable
solubility kinetic [6]: > 30 µg/mL
parent compound remaining [7]: less than 5%

COC(=O)c1ccccc1N1CCN(C(=O)COCc2ccccc2)CC1 [10f]
less potent than 10e [1]: > 5 fold

O=C(COCc1ccccc1)N1CCN(c2ncccn2)CC1 [10h]
EC50 [1]: > 10 µM
